Measured values: patent US20260069606A1, “Oxidative Stress and Diabetes Treatment with Cobinamide” (The Regents of the University of California, priority 2022, published 2026)

Experiments:
[1] = Reaction with hydrogen peroxide, H2O2-specific electrode; type: biochemical
Experimental: FIGS. 2A-2F. Cobinamide Functions as a Catalase Mimetic and Reacts with Peroxynitrite. […]. Hydrogen peroxide (final concentration 50 μM) was added to solutions containing increasing concentrations of Chi(III) (FIG. 2A) or Chi(II) (FIG. 2C), and the H2O2 concentration was measured over time using a H2O2-specific electrode. The log of the velocity in the presence of Chi(III) (FIG. 2B) or Chi(II) (v) (FIG. 2D) over the velocity in their absence (Vo) is plotted against the log of their concentrations at 20 min over their concentrations at zero time. These plots yield a reaction order with respect to Chi(III) and Cbi(II) of 0.7. The experiments were repeated three times with similar results. Dotted lines show 95% confidence intervals. FIG. 2E. […] The Chi(III) spectra are slightly different from those shown in FIG. 1G because at pH 11, dihydroxo-cobinamide is generated, whereas at pH 7.1, aquohydroxo-cobinamide is the predominant species. The spectra of aquohydroxo- and dihydroxo-cobinamide are known to be different^65. FIG. 2F. Varying concentrations of Chi(II) from 1 to 10 μM were mixed with 10 μM peroxynitrite in a stopped-flow instrument, and absorption at 315 nm was monitored for 0.5 sec. The results for 5 μM Cbi(II) are shown; red circles are the observed data, and the black line is a two-phase non-linear regression curve generated by Prism 7.04 software. […] The experiment was repeated three times with similar results. Dotted lines show 95% confidence intervals.
Table I. Reaction Rates of Cobinamide (Cbi), Cobalamin, Imisopasem, and MnTBAP with Reactive Oxygen and Nitrogen Species. Reactions of the indicated compounds with O2·^−, ONOO^−, and ·NO are all second order reactions with rate constants in units of M^−1 s^−1. The reactions of Cbi(III) and Cbi(II) with H2O2 are third order with rate constant units of M^−2 s^−1. Chi(II) and cobalamin(II) bind nitric oxide, so a Ka is shown in units of M^−1. For the new data presented in this study, rate constants were measured for O2·^− using a hypoxanthine-xanthine oxidase-cytochrome c system, for H2O2 using a H2O2-specific sensor (World Precision Instruments), and for ONOO^− using a stopped-flow instrument. Published rate constants for Cu/Zn and Mn superoxide dismutases (SOD) and catalase are shown for reference.^a,b Letters and numbers in parenthesis refer to footnotes and references, respectively.
Both Cbi(III) and Chi(II) react with H2O2, and the reaction was essentially first order with respect to Cbi(III) and Cbi(II) (FIG. 2A-D), and second order with respect to H2O2 for both cobinamide species. […]

H9c2 cells = assay: Mitochondrial membrane potential, JC-1 red to green fluorescence; type: cell-based, rat
Experimental: (§1) FIGS. 3A-3H. […] FIGS. 3A-3B. […] FIG. 3A. […] FIG. 3B. […] FIGS. 3C-3D. […] FIG. 3D. […] FIGS. 3E-3F. […] FIG. 3E. Representative blots are shown. […] FIG. 3F. […] FIG. 3G. […] FIG. 3H.
The cells were then washed once with PBS, placed back in the DMEM experimental medium, and incubated with the indicated drugs for 30 min. At the end of the incubation period, nuclei of both the MitoSOX Red- and JC-1-treated cells were stained with […] 4′,6-diamidino-2-phenyl-indole (DAPI) for 3 min, washed once with PBS, and returned to the DMEM experimental medium. The cover slips were removed from the wells, mounted in the DMEM experimental medium, and red (MitoSOX Red and JC-1 aggregates), green (JC-1 monomers), and blue (DAPI) fluorescence intensity was assessed using a Keyence BZ-X700 fluorescence microscope at the following paired excitation/emission wavelengths, respectively: 560/630, 490/525, and 360/460 nm.
Increased mitochondrial O2·^− by rotenone would be expected to reduce the mitochondrial membrane potential (ΔΨm), due in part to activation of uncoupling proteins^39. […] Rotenone caused an almost complete loss of red fluorescence and a striking increase in green fluorescence in the cells, indicating a marked decrease in ΔΨm (FIGS. 3C-3D).

[2] = test system: Jun N-terminal kinase (JNK) phosphorylation in H9c2 cells; assay: H2O2-induced JNK phosphorylation, immunoblotting; type: cell-based, rat
Text: as §1

COS-7 cells = test system: COS-7 cells
Experimental: as §1
Finally, whether cobinamide could alleviate the effects of oxidative stress induced by yet another mechanism in a different cell type was tested using paraquat-treated COS-7 cells. Paraquat generates O2·^− through a redox cycling mechanism and increases both intracellular O2·^− and H2O2^42.

[3] = Tolerability in non-diabetic and streptozotocin-diabetic mice (weight, liver and renal function); type: in vivo
Text: The water was replenished twice a week.
Over the three-month treatment period, the non-diabetic mice gained an average of 4.1±0.8 g. while the diabetic mice lost an average of 0.3 g, with wide variation in weight change among the latter mice.

[4] = physiological conditions; 50 mM potassium phosphate pH 7.4, three-fold molar excess of reductant
Experimental: H9c2 cells were incubated for 30 min with vehicle, 2.5 μM cobinamide, or 5 μM rotenone, the latter in the absence or presence of 2.5 μM cobinamide, imisopasem, MnTBAP, or cobalamin; 5 μM MitoSOX was added during the last 10 min. The cells were incubated with 1 mg/ml DAPI for 3 min to counterstain nuclei, and then visualized under a fluorescence microscope. […] Equal-sized representative areas for each condition are shown for MitoSOX staining (red fluorescence) and the same area showing merged MitoSOX and DAPI staining. […] The amount of red fluorescence was quantified by Image J analysis. Data are the mean±SD of three independent experiments; in each experiment two separate equal-sized areas were analyzed containing ˜75 cells per area. […] H9c2 cells were incubated for 10 min with 10 μM JC-1, washed once with PBS, and then incubated for 30 min with vehicle, 2.5 μM cobinamide, or 5 μM rotenone in the absence or presence of 2.5 μM of the indicated drugs as described in Panels A, B. FIG. 3C. Cells were visualized under a fluorescence microscope and equal-sized representative areas of each condition are shown, with red and green fluorescence shown for the same area. […] The amount of red and green fluorescence was quantified by Image J analysis and the red to green ratio was calculated. The slides were analyzed by an operator who was blinded to the specific conditions. Data are the mean±SD of three independent experiments; in each experiment two separate equal-sized areas were analyzed containing ˜75 cells per area. […] Blots from four independent experiments were analyzed by densitometric scanning (Li-Cor Odyssey software) in a range where band intensity was linear. The ratio of the pJNK band to GAPDH was calculated, and the results normalized to control untreated cells. […] The UV-visible spectrum of Chi(III) in 50 mM potassium phosphate buffer, pH 7.4 was recorded before (black line) and immediately after adding a three-fold molar excess of ascorbate (blue line), cysteine (teal line), or reduced glutathione (GSH, pink line). […]

[5] = test system: mouse model of human familial aortic aneurysm; conditions: 1 mM cobinamide in drinking water; cited from earlier work

Compound: C/C1=C2/[N-][C@H]([C@H](CC(N)=O)[C@@]2(C)CCC(=O)NC[C@@H](C)O)[C@]2(C)N=C(/C(C)=C3N=C(/C=C4N=C1[C@@H](CCC(N)=O)C\4(C)C)[C@@H](CCC(N)=O)[C@]\3(C)CC(N)=O)[C@@H](CCC(N)=O)[C@]2(C)CC(N)=O.[Co+3] [cobinamide, aquohydroxo-cobinamide]
- Reaction order with respect to the cobinamide species in the reaction with H2O2 ([1]; 50 μM H2O2): 0.7
- Apparent rate constant, reaction with hydrogen peroxide (H2O2) ([1]; third order, H2O2-specific sensor, new data of this study, listed as Cbi(III)): 8.0 × 10^2 M^−2 s^−1
- JC-1 red to green fluorescence ratio (ΔΨm) in rotenone-treated cells (H9c2 cells; H9c2, 5 μM rotenone 30 min, drugs at 2.5 μM): restored the ratio of red to green fluorescence
- JC-1 red to green fluorescence ratio, drug alone (H9c2 cells; H9c2, vehicle-treated cells without rotenone, 2.5 μM): no change
- JNK phosphorylation in H2O2-treated cells ([2]; H9c2, 100 μM H2O2 30 min, drugs at 100 μM): reduced JNK phosphorylation to a level that was indistinguishable from vehicle-treated cells
- JNK phosphorylation or total cellular JNK in the absence of H2O2 ([2]; H9c2, drug alone): neither Cbi(III), Cbi(II) nor the other three drugs affected JNK phosphorylation
- Cell growth of paraquat-treated cells (COS-7 cells; COS-7, 1 mM paraquat 3 h, 100 μM drug, counted 48 h later): ~80 % of the control value
- Effect on cell growth, drug alone (COS-7 cells; COS-7, no paraquat): no effect on cell growth
- Average weight gain of cobinamide-treated diabetic mice ([3]; mouse, in vivo): 0.63 g
- Effect on weight ([3]; mouse, in vivo): did not significantly affect weight
- Liver function and renal function tests ([3]; mouse, in vivo): no effect
- Tolerability ([3]; non-diabetic and diabetic mice, three months in drinking water): well tolerated
- Reduction by ascorbate, cysteine and reduced glutathione (GSH) [4]: readily reduced to Cbi(II)
- Aortic oxidative stress, pathological changes and aneurysm formation [5]: blocked the increase in oxidative stress and pathological changes, and prevented aneurysm formation
- Clinical or laboratory evidence of toxicity [5]: no clinical or laboratory evidence of toxicity
